Laboratory results: the supplement of paper PMC11061612

Assays:
A375 (Melanoma) [1] = assay: Bliss excess, mean over the matrix (fraction); higher = more synergy
Outline: (§1)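 After 24 hours at 37°C and 5% CO2 in 1536-well plates, cells in DMEM/F12 or RPMI plus 10% FBS received two-drug dose matrices for 72 hours. Viability came from CellTiter-Glo 2.0 luminescence and was scaled as inhibition, anchored at 0 by vehicle wells and at 1 by blank wells. Combination Emax is taken as the second-highest inhibition in the matrix, and Bliss excess as the observed combination effect less EA + EB − EA·EB, with EA and EB the single-agent effects.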

[2] = tested on: ATN-1 (T-Lymphoblastic Leukemia); assay: as above
Outline: as §1

[3] = tested on: BC-1 (B-Cell Non-Hodgkin's Lymphoma); assay: as above
Outline: as §1

C32 (Melanoma) [4] = assay: as above
Outline: as §1

[5] = tested on: HT-3 (Cervical Carcinoma); assay: as above
Outline: as §1

[6] = tested on: IGROV-1 (Ovarian Carcinoma); assay: as above
Outline: as §1

[7] = tested on: KNS-62 (Squamous Cell Lung Carcinoma); assay: as above
Outline: as §1

[8] = tested on: NCI-H1435 (Non-Small Cell Lung Carcinoma); assay: as above
Outline: as §1

[9] = tested on: NCI-H2023 (Non-Small Cell Lung Carcinoma); assay: as above
Outline: as §1

[10] = tested on: OCI-M1 (Acute Myeloid Leukemia); assay: as above
Outline: as §1

[11] = tested on: SBC-5 (Small Cell Lung Carcinoma); assay: as above
Outline: as §1

SK-N-DZ (Neuroblastoma) = assay: as above
Outline: as §1

A375 (Melanoma) [12] = assay: combination Emax (second highest fraction inhibited in the dose matrix, 72 h); higher = more inhibition; extreme values may be limits of the assay
Outline: as §1

C32 (Melanoma) [13] = assay: as above
Outline: as §1

HT-144 (Melanoma) = assay: as above
Outline: as §1

MG-63 (Osteosarcoma) = assay: as above
Outline: as §1

[14] = tested on: NCI-H2009 (Lung Adenocarcinoma); assay: as above
Outline: as §1

[15] = tested on: RPMI-8402 (T-Lymphoblastic Leukemia); assay: as above
Outline: as §1

[16] = tested on: SNU-1 (Gastric Carcinoma); assay: as above
Outline: as §1

[17] = tested on: SUP-HD1 (Hodgkin's Lymphoma); assay: as above
Outline: as §1
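Throughout, for Bliss excess, mean over the matrix: after 72 h of two-drug dosing.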

Structure (SMILES) | Bliss excess (A375 (Melanoma) [1]) | Bliss excess [2] | Bliss excess [3] | Bliss excess (C32 (Melanoma) [4]) | Bliss excess [5] | Bliss excess [6] | Bliss excess [7] | Bliss excess [8] | Bliss excess [9] | Bliss excess [10] | Bliss excess [11] | Bliss excess (SK-N-DZ (Neuroblastoma)) | combination Emax (A375 (Melanoma) [12]) | combination Emax (C32 (Melanoma) [13]) | combination Emax (HT-144 (Melanoma)) | combination Emax (MG-63 (Osteosarcoma)) | combination Emax [14] | combination Emax [15] | combination Emax [16] | combination Emax [17]
CC1(C)CCC(CN2CCN(c3ccc(C(=O)NS(=O)(=O)c4ccc(NCC5CCOCC5)c([N+](=O)[O-])c4)c(Oc4cnc5[nH]ccc5c4)c3)CC2)=C(c2ccc(Cl)cc2)C1 [Venetoclax] + C=CCn1c(=O)c2cnc(Nc3ccc(N4CCN(C)CC4)cc3)nc2n1-c1cccc(C(C)(C)O)n1 [AZD1775] (first compound max 1 µM, partner max 1 µM) | -0.0142 | 0.0707 | 0.0683 | 0.0075 | -0.0049 | -0.0952 | -0.0106 | -0.0029 | 0.0053 | -0.0505 | -0.0709 | 0.0353 | 0.505 | 0.546 | 0.509 | 0.626 | 0.637 | 1 | 0.769 | 0.921
C=CCn1c(=O)c2cnc(Nc3ccc(N4CCN(C)CC4)cc3)nc2n1-c1cccc(C(C)(C)O)n1 [AZD1775] + C[C@@H]1COCCN1C2=NC(=NC(=C2)C3(CC3)[S@](=N)(=O)C)C4=C5C=CNC5=NC=C4 [AZD6738] (first compound max 1 µM, partner max 10 µM) | 0.0154 | -0.0076 | 0.0338 | 0.0073 | 0.0386 | -0.0348 | 0.0257 | 0.0291 | -0.0674 | 0.0327 | 0.0037 | 0.0094 | 0.766 | 0.73 | 0.777 | 0.854 | 0.799 | 1 | 0.817 | 0.887
Cc1c2c(nn1C)CSCc1cc(n(C)n1)CSc1cc(c3ccccc3c1)OCCCc1c(C(=O)O)n(C)c3c-2c(Cl)ccc13 [AZD5991] + C1CN(CCC1(C(=O)N[C@@H](CCO)C2=CC=C(C=C2)Cl)N)C3=NC=NC4=C3C=CN4 [Capivasertib] (first compound max 1 µM, 7x7, partner max 3 µM) | -0.0192 | 0.0208 | 0.0256 | 0.0009 | 0.0198 | 0.0239 | 0.0047 | 0.0331 | -0.0028 | -0.0105 | -0.0069 | -0.001 | 0.2 | 0.266 | 1 | 0.228 | 0.158 | 0.929 | 0.613 | 0.777
Cc1c2c(nn1C)CSCc1cc(n(C)n1)CSc1cc(c3ccccc3c1)OCCCc1c(C(=O)O)n(C)c3c-2c(Cl)ccc13 [AZD5991] + CC1(C)CCC(CN2CCN(c3ccc(C(=O)NS(=O)(=O)c4ccc(NCC5CCOCC5)c([N+](=O)[O-])c4)c(Oc4cnc5[nH]ccc5c4)c3)CC2)=C(c2ccc(Cl)cc2)C1 [Venetoclax] (first compound max 1 µM, 7x7, partner max 1 µM) | -0.0063 | 0.0429 | 0.0493 | 0.0147 | 0.0195 | -0.0326 | -0.0426 | 0.0174 | -0.0387 | -0.0076 | -0.0218 | 0.0428 | 0.307 | 0.626 | 0.955 | 0.199 | 0.151 | 0.932 | 0.933 | 0.959
Cc1c2c(nn1C)CSCc1cc(n(C)n1)CSc1cc(c3ccccc3c1)OCCCc1c(C(=O)O)n(C)c3c-2c(Cl)ccc13 [AZD5991] + CCN(CCO)CCCOc1ccc2c(Nc3cc(CC(=O)Nc4cccc(F)c4)[nH]n3)ncnc2c1 [AZD2811] (first compound max 1 µM, 7x7, partner max 1 µM) | 0.0227 | -0.0413 | 0.0403 | 0.05 | 0.162 | -0.0053 | 0.0156 | 0.0411 | 0.0307 | 0.068 | 0.0523 | 0.043 | 0.746 | 0.445 | 0.927 | 0.232 | 0.754 | 1 | 0.551 | 0.787
NC1(C(=O)N[C@@H](CCO)c2ccc(Cl)cc2)CCN(c2ncnc3[nH]ccc23)CC1 [Capivasertib] + C[C@@H]1COCCN1C2=NC(=NC(=C2)C3(CC3)[S@](=N)(=O)C)C4=C5C=CNC5=NC=C4 [AZD6738] (first compound max 10 µM, 7x7, partner max 10 µM) | -0.0239 | -0.0127 | 0.0034 | -0.0288 | -0.0091 | -0.0883 | -0.0305 | 0.0077 | 0.0282 | 0.0211 | -0.0169 | 0.0045 | 0.723 | 0.631 | 0.88 | 0.855 | 0.453 | 0.997 | 0.718 | 0.762
Cn1cnc2c(F)c(Nc3ccc(Br)cc3Cl)c(C(=O)NOCCO)cc21 [Selumetinib] + C[C@@H]1COCCN1C2=NC(=NC(=C2)C3(CC3)[S@](=N)(=O)C)C4=C5C=CNC5=NC=C4 [AZD6738] (first compound max 10 µM, 7x7, partner max 10 µM) | 0.0189 | -0.024 | -0.0612 | 0.0236 | 0.063 | 0.0211 | -0.0278 | -0.0103 | -0.0255 | 0.0217 | 0.0096 | -0.0083 | 0.772 | 1 | 0.864 | 0.547 | 0.627 | 0.974 | 0.79 | 0.668
NC1(C(=O)N[C@@H](CCO)c2ccc(Cl)cc2)CCN(c2ncnc3[nH]ccc23)CC1 [Capivasertib] + COc1nnc2ccc(N3CCC(c4ccc(OCCN5CCN(C)C(=O)[C@H]5C)cc4)CC3)nn12 [AZD5153] (first compound max 10 µM, 7x7, partner max 1 µM) | 0.009 | -0.0444 | -0.0042 | 0.0434 | -0.0281 | -0.0221 | 0.0035 | -0.025 | 0.0221 | -0.0026 | 0.0351 | 0.0675 | 0.469 | 0.687 | 0.855 | 0.86 | 0.498 | 0.991 | 0.652 | 0.857
CC1(C)CCC(CN2CCN(c3ccc(C(=O)NS(=O)(=O)c4ccc(NCC5CCOCC5)c([N+](=O)[O-])c4)c(Oc4cnc5[nH]ccc5c4)c3)CC2)=C(c2ccc(Cl)cc2)C1 [Venetoclax] + C[C@@H](Nc1cc(F)cc(F)c1)c1cc(C(=O)N(C)C)cc2c(=O)cc(N3CCOCC3)oc12 [AZD8186] (first compound max 1 µM, 7x7, partner max 3 µM) | -0.0326 | 0.0347 | -0.0157 | -0.0207 | -0.0359 | 0.0084 | -0.0545 | 0.0012 | -0.0539 | -0.0158 | -0.022 | 0.0144 | 0.109 | 0.26 | 0.159 | 0.143 | 0.445 | 0.431 | 0.154 | 0.839
COc1cccc(OCCCN)c1-c1cc(Nc2cnc(C#N)cn2)n[nH]1 [Prexasertib] + C[C@@H]1COCCN1C2=NC(=NC(=C2)C3(CC3)[S@](=N)(=O)C)C4=C5C=CNC5=NC=C4 [AZD6738] (first compound max 1 µM, 7x7, partner max 10 µM) | 0.0067 | -0.0207 | -0.0022 | -0.0529 | 0.0202 | -0.0567 | 0.0035 | 0.0676 | 0.0108 | -0.0504 | -0.0272 | 0.008 | 0.853 | 0.735 | 0.853 | 0.866 | 0.522 | 1 | 0.888 | 0.903
CN(C)CCCOc1ccc(-c2ccc3ncc4c(c3c2)n(C2CCOCC2)c(=O)n4C)cn1 [AZD0156] + CCN(CCO)CCCOc1ccc2c(Nc3cc(CC(=O)Nc4cccc(F)c4)[nH]n3)ncnc2c1 [AZD2811] (first compound max 1 µM, 7x7, partner max 1 µM) | -0.0112 | -0.0742 | 0.0234 | -0.0213 | -0.039 | -0.0527 | -0.0213 | -0.0219 | 0.0066 | 0.042 | 0.0184 | 0.0526 | 0.33 | 0.14 | 0.232 | 0.285 | 0.189 | 0.889 | 0.434 | 0.48
C[C@@H]1COCCN1c1cc(C2([S@](C)(=N)=O)CC2)nc(-c2ccnc3[nH]ccc23)n1 [AZD6738] + O=C(c1cc(Cc2n[nH]c(=O)c3ccccc23)ccc1F)N1CCN(C(=O)C2CC2)CC1 [Olaparib] (first compound max 10 µM, 7x7, partner max 10 µM) | 0.0238 | 0.0169 | -0.0041 | 0.0019 | 0.0399 | -0.0169 | 0.0026 | 0.0203 | 0.0867 | -0.017 | 0.0025 | -0.0019 | 0.66 | 0.694 | 0.859 | 0.674 | 0.478 | 1 | 0.777 | 0.725
COc1cccc2c1C(=O)c1c(O)c3c(c(O)c1C2=O)C[C@@](O)(C(=O)CO)C[C@@H]3O[C@H]1C[C@H](N)[C@H](O)[C@H](C)O1 [Doxorubicin] + Cc1cc2ncnn2cc1Nc1ncc2c(n1)n(C1CCOCC1)c(=O)n2C [AZD7648] (first compound max 1 µM, 7x7, partner max 10 µM) | 0.09 | 0.0967 | 0.094 | 0.044 | 0.127 | 0.0222 | -0.0075 | 0.0002 | 0.0476 | 0.102 | 0.0341 | 0.112 | 0.949 | 0.68 | 0.583 | 0.896 | 0.546 | 1 | 0.848 | 0.878
